Results on 3 compounds are retold here after patent US9062074B2, “(9E)-15-(2-pyrrolidin-1-yl-ethoxy)-7,12,25-trioxa-19,21,24-triaza-tetracyclo[18.3.1.1(2.5).1(14,18)]hexacosa-1(24),2,4,9,14,16,18(26),20,22-nonaene citrate salt” (CTI BioPharma Corp., priority 2009, dated 2015).

What all share (assay type): physicochemical
Series [1] in a line: Thermogravimetric Analysis (TGA). On the procedure: Thermogravimetric Analysis (TGA) data were collected on a Mettler TGA/SDTA 851e equipped with a 34 position autosampler. The instrument was temperature calibrated using certified indium. Typically 5-30 mg of each sample was loaded onto a pre-weighed aluminium crucible and was heated at 10° C.min^−1 from ambient temperature to 350° C. A nitrogen purge at 50 ml.min^−1 was maintained over the sample. The instrument control and data analysis software was STARe v9.10.

Series [2] in a line: Differential Scanning Calorimetry (DSC). As to conditions: heated at 10° C.min^−1. On the procedure:
Differential Scanning Calorimetry (DSC) data were collected on a Mettler DSC 823e equipped with a 34 position auto-sampler. The instrument was calibrated for energy and temperature using certified indium. Typically 0.5-3 mg of each sample, in a pin-holed aluminium pan, was heated at 10° C.min^−1 from 25° C. to 350° C. A nitrogen purge at 50 ml.min^−1 was maintained over the sample. The instrument control and data analysis software was STARe v9.10.

Series [3] is described as follows: Phase stability by XRPD after storage at 40° C. and 75% relative humidity for one week. The conditions noted are these: solid form by low resolution XRPD after one week. The method, then: Condition 2 (Low Resolution)
X-Ray Powder Diffraction patterns were also collected on a Bruker D8 diffractometer using Cu K[…] radiation (40 kV, 40 mA), θ-2θ goniometer, and divergence of V4 and receiving slits, a Ge monochromator and a Lynxeye detector. The instrument is performance checked using a certified Corundum standard (NIST 1976). The software used for data collection was Diffrac Plus XRD Commander v2.5.0 and the data were analysed and presented using Diffrac Plus EVA v 11.0.0.2 or v 13.0.0.2. Samples were run under ambient conditions as flat plate specimens using powder as received. Approximately 15 mg of the sample was gently packed into a cavity cut into polished, zerobackground (510) silicon wafer. The sample was rotated in its own plane during analysis. The details of the data collection are:
The samples which had been prepared for the collection of low resolution XRPD traces were placed in a chamber maintained at 40° C. and 75% relative humidity. After one week the samples were reanalysed by low resolution XRPD (Condition 2), to check for phase changes. It can be seen that no phase change has occurred, and that citrate salts of the invention are stable for at least one week under these conditions.

The nature of series [4]: Solubility assessment (solvent added in 10 volume aliquots). On the procedure: For each solvent investigated, approximately 8 mg of compound 1 was weighed into an 8 ml screw top glass vial. The solvent was added in 10 volume aliquots and the mixture sonicated and warmed (with a hot-air gun) to encourage dissolution. If dissolution was not achieved after the addition of 100 volumes of solvent, a further 100 volumes was added.

Series [5] can be described thus: Polymorphism assessment (XRPD after 25° C./50° C. cycles in solvent). The method, then: The vials were then placed in a humidity chamber and subjected to cycles of 25° C./50° C. (8 hour cycles) for 24 hours. At the end of this time the samples were examined and then left with loosened lids to allow for evaporation of the solvent. Those samples which had dried out were then transferred to a quartz array, whilst those for which there was still solvent present, were filtered under vacuum onto a sinter. The samples were then analysed by XRPD to assess their crystalline state and form.

Series [6] can be described thus: Solubility assessment (solvent added in 10 volume aliquots). This is another data set of the same source.
Series [7] in a line: Gravimetric Vapour Sorption (GVS). The method, then:
Sorption isotherms were obtained using a SMS DVS Intrinsic moisture sorption analyser, controlled by SMS Analysis Suite software. The sample temperature was maintained at 25° C. by the instrument controls. The humidity was controlled by mixing streams of dry and wet nitrogen, with a total flow rate of 200 ml.min^−1. The relative humidity was measured by a calibrated Rotronic probe (dynamic range of 1.0-100% RH), located near the sample. The weight change, (mass relaxation) of the sample as a function of % RH was constantly monitored by the microbalance (accuracy ±0.005 mg). Typically 5-20 mg of sample was placed in a tared mesh stainless steel basket under ambient conditions. The sample was loaded and unloaded at 40% RH and 25° C. (typical room conditions). A moisture sorption isotherm was performed as outlined below (2 scans giving 1 complete cycle). The standard isotherm was performed at 25° C. at 10% RH intervals over a 0.5-90% RH range.
The hygroscopicity of the citrate was investigated by carrying out a gravimetric vapour sorption experiment on Batch 4. A sample of approximately 20 mg was held at 25° C. whilst the humidity of its environment was changed through two complete cycles. […] The sample takes longer to reach equilibrium in the early stages of the experiment. This may be due to displacement of residual solvent.

SMILES strings stand for the structures. Structures can show the parent of a compound that is named as a salt.

As to `C1=C2COC/C=C/COCc3cc(ccc3OCCN3CCCC3)Nc3nccc(n3)C(=C1)O2` [Batch 6], the “Thermogravimetric Analysis weight change” value in series [1] (160 to 250° C.) is −20% w/w 160 to 250 °C; in series [1] (ambient to 160° C.), −0.3% w/w ambient to. Further, in series [2], the “Differential Scanning Calorimetry complex endotherm onset (significant thermal event)” value is “onset 176 °C”. Besides, in series [3], the “Phase Stability 1 wk @ 40° C./75% RH” value is “Crystalline Form 1”.
For the compound `C1=C2COC/C=C/COCc3cc(ccc3OCCN3CCCC3)Nc3nccc(n3)C(=C1)O2` [Compound I, 9E-15-(2-pyrrolidin-1-yl-ethoxy)-7,12,25-trioxa-19,21,24-triaza-tetracyclo[18.3.1.1(2,5).1(14,18)]hexacosa-1(24),2,4,9,14,16,18(26),20,22-nonaene], the “total dissolution in solvent screen” value in series [4] (11 solvents, up to 200 volumes) is “total dissolution was only achieved in water”.
Turning to `C1=C2COC/C=C/COCc3cc(ccc3OCCN3CCCC3)Nc3nccc(n3)C(=C1)O2` [citrate, 9E-15-(2-pyrrolidin-1-yl-ethoxy)-7,12,25-trioxa-19,21,24-triaza-tetracyclo[18.3.1.1(2,5).1(14,18)]hexacosa-1(24),2,4,9,14,16,18(26),20,22-nonaene citrate], the “solid form of recovered solid (XRPD)” value in series [5] (aqueous solution allowed to evaporate) is listed as “amorphous”. The “solid form of residues (XRPD)” value in series [5] (organic solvent screening samples) was “Form 1”. In series [6], the “level at which the salt dissolves in water” value is ≥ 100000 µg/mL. Besides, the hygroscopicity result in series [7] (GVS, 0% RH to 90% RH) is listed as “not hygroscopic”. For the same compound, the maximum weight difference entry in series [7] (between 0% RH and 90% RH, 25° C.) is on record as “less than 1 % w/w”. Besides, in series [4] (organic solvents of the screen), the “solubility in organic solvents” value was “extremely limited”.
